The source of these data is publication PMC9837035 (Nature Communications, 2023).

Data set [1] relates to CHD3 and CHD4 occupancy at the BGLT3 gene locus. Kind of data set: ChIP-qPCR with antibodies against CHD3 or CHD4 in HUDEP-2 cells. It counts as cell-based, human. Particulars: HUDEP-2, 1 μM, 4 days. The protocol: A total of 0.5–1 × 10^6 cells were cross-linked with 1% formaldehyde for 10 min at room temperature and the reaction was quenched with 250 mM glycine. Cross-linked cells were then lysed with buffer 1 (15 mM Tris-HCl (pH 7.5), 60 mM KCl, 15 mM NaCl, 5 mM MgCl2, 0.1 mM EGTA, 300 mM sucrose, […], 1 mM phenylmethanesulfonyl fluoride (PMSF), 0.5% NP40) and incubated on ice for 10 min. After centrifugation, the pellet was re-suspended in buffer 2 (15 mM Tris-HCl (pH 7.5), 60 mM KCl, 15 mM NaCl, 5 mM MgCl2, 0.1 mM EGTA, 1.2 M sucrose, […], 1 mM PMSF). After centrifugation, the pellet was then re-suspended in MNase buffer (50 mM Tris-HCl (pH 7.5), 1 mM CaCl2, 4 mM MgCl2, 320 mM sucrose, 1 mM PMSF) and digested with 100 U of micrococcal nuclease (Takara) at 37 °C for 15 min. […] The samples were analyzed by qPCR. […] ChIP-seq analysis were analyzed Cutadapt (V1.9.1) for QC, FastQC (V0.10.1) for QC assessment, Bowtie (V2.1.0) for mapping, strand cross-correlation (SCC) for ChIP quality assessment, MACS2 for peak calling, and R package ChIPpeakAnno for Peak annotated.
(In general: Real-time PCR tracks product formation cycle by cycle.)

Data set [2] deals with H3K9me2 in peripheral blood. Kind of data set: H3K9me2 levels in peripheral blood of treated mice. It counts as in vivo. The protocol:
Preparation of cell lysates and western blotting were performed as described previously. Protein from cells lysates in lysis buffer (50 mM Tris-HCl (pH 7.5), 150 mM NaCl, 5 mM EDTA, 0.1% NP-40, 1 mM dithiothreitol) were separated by sodium dodecyl sulfate–polyacrylamide gel electrophoresis (SDS-PAGE) and transferred to a polyvinylidene difluoride (PVDF) membrane (Millipore) by electroblotting. The membranes incubated with primary antibodies overnight at 4 °C and secondary antibodies for 1 h at room temperature. The immune complexes were detected with the Immobilon Western Chemiluminescent HRP Substrate (Millipore). Luminescence was analyzed on a FUSION SOLO S (Vilber). Western blot bands were visualized using Evolution Capt software (M&S Instruments Inc.). Primary antibodies used were anti-G9a (1:1000, CST, #3306), anti–α-tubulin (1:5000, Abcam, ab18251), anti-H3K9me2 (1:3000, Abcam, ab1220), anti-H3 (1:5000, Abcam, ab1791), anti-H3K27me3 (1:3000, Sigma, 07-449), anti-GLP (1:1000, CST, #35005), anti-FLAG (100 ng/ml, Fujifilm, 01422383), anti-His (1:5000, MBL, PM032), anti-BCL11A (1:1000, abcam, ab19487), anti-ZBTB7A (1:1000, CST, #50565), anti-CHD3 (1:1000, Novus Biologicals, NB100-60412), and anti-CHD4 (1:1000, abcam, ab240640). […]
The dosing solution contained 15% DMSO, 17.5% Cremophor EL, 8.75% EtOH, 8.75% HCO-40, and 50% PBS. […] The weight of each mouse was measured every 3 or 4 days.

The target in a further data set is NSD2 (T1150A) (Homo sapiens, UniProt O96028, T1150A). Kind of data set: Radioisotope-based methyltransferase assay (selectivity).
A further data set in a line: Aqueous solubility. It counts as physicochemical. Details: Solubility in PBS (pH = 7.4): unit: uM. Particulars: for solubility at 1 h: phosphate buffer. The protocol: The direct UV kinetic solution method was performed in duplicate. A 10 mM DMSO solution of compound was added to a microtube containing aqueous pH 7.4 or pH 6.8 phosphate buffer solution (maximum concentration: 200 μM). The solution mixture was vigorously shaken at ambient temperature for 1 h. The precipitate was removed by centrifugal separation, and the UV absorbance of the supernatant and the standard solution prepared by the test compound for calibration were measured in duplicate using a 96-well UV plate reader, SPECTRA MAX190 (Molecular Devices).

A further data set has as its target EZH1 (Homo sapiens, UniProt Q92800). Kind of data set: biochemical.

Values after ≈ are worked out from the molar mass of the structure shown. Values joined by “and” are separate entries in the source; they are usually repeats but may differ in a detail not shown here. Equal values may be shown once. Read-outs that look alike come from different tables or passages of the source. Bounds are passed on as bounds.

Sequence of EZH1 (Q92800 whole entry): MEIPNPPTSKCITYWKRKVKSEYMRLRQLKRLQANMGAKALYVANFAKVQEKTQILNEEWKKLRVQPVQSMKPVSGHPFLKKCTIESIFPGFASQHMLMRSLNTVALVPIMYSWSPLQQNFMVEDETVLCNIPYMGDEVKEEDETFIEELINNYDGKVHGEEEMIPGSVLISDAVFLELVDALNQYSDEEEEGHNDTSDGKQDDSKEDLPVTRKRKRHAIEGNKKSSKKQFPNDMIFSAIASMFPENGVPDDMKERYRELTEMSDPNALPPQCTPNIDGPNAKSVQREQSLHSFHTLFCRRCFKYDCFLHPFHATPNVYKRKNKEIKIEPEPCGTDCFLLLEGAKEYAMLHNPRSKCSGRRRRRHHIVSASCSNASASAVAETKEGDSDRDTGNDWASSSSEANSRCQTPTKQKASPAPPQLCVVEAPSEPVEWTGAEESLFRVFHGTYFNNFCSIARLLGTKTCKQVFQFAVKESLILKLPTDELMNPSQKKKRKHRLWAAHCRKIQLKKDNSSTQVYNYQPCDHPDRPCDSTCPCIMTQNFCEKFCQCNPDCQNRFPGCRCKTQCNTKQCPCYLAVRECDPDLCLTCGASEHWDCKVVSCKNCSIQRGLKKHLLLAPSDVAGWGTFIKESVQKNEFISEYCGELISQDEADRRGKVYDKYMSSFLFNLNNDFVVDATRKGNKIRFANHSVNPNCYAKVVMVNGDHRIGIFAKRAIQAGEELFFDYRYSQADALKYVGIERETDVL
Sequence of EZH1 (O75530 whole entry partner): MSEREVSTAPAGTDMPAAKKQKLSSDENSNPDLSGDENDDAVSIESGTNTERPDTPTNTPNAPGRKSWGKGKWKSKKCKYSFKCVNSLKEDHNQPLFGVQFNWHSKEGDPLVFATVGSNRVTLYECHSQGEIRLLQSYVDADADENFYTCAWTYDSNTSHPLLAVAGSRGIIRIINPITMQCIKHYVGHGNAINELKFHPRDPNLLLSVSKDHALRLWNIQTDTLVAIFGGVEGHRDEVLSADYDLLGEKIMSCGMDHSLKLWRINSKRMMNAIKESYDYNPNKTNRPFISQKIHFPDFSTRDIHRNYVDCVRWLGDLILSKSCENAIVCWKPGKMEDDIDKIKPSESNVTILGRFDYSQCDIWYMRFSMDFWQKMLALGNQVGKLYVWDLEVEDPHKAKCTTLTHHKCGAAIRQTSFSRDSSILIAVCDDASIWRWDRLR
Sequence of EZH1 (Q15022 whole entry partner): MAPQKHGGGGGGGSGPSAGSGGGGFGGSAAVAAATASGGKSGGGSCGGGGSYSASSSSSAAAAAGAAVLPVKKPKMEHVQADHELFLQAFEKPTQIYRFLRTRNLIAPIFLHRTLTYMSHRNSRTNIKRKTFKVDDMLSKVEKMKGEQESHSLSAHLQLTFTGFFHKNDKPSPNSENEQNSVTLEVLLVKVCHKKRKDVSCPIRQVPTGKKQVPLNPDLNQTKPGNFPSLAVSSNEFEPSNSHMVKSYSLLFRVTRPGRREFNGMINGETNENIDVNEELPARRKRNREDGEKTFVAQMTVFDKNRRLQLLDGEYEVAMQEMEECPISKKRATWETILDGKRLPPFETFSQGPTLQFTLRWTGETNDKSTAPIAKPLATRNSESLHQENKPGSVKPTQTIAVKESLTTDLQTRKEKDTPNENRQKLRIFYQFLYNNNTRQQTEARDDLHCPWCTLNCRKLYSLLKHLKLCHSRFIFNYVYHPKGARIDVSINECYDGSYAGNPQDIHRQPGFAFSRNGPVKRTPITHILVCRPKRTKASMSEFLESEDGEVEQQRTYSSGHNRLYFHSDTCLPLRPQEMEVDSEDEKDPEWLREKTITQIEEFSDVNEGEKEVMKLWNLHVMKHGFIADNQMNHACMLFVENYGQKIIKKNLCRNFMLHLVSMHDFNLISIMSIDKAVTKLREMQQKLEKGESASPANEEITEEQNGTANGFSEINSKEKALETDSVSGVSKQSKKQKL
Sequence of EZH1 (Q09028 whole entry partner): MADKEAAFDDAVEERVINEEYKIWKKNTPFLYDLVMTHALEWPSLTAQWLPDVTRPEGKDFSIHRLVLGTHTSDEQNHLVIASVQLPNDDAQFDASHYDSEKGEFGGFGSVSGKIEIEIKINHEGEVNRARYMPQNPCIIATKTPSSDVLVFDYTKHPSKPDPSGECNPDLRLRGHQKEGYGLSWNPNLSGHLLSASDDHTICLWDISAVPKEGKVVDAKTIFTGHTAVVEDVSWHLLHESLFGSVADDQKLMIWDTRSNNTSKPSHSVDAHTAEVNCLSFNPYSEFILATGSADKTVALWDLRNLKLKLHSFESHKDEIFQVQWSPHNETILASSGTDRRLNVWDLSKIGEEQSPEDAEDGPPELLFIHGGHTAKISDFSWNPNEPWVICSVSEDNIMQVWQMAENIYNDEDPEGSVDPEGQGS
Sequence of EZH1 (Q6ZN18 whole entry partner): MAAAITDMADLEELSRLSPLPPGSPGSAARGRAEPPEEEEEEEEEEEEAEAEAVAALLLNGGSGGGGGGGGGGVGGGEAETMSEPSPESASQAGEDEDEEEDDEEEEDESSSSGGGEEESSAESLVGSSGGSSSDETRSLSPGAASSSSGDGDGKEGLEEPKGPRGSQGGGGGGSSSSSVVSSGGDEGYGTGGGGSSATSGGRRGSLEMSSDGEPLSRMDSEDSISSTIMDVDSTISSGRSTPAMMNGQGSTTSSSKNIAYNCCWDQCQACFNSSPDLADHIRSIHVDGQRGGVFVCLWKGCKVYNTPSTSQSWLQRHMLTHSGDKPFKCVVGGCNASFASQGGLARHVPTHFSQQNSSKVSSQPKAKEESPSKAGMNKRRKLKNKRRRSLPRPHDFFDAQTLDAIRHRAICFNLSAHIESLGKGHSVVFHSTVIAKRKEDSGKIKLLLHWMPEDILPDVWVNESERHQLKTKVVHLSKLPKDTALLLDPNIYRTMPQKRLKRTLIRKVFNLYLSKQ
Sequence of NSD2 (T1150A) (O96028 whole entry T1150A): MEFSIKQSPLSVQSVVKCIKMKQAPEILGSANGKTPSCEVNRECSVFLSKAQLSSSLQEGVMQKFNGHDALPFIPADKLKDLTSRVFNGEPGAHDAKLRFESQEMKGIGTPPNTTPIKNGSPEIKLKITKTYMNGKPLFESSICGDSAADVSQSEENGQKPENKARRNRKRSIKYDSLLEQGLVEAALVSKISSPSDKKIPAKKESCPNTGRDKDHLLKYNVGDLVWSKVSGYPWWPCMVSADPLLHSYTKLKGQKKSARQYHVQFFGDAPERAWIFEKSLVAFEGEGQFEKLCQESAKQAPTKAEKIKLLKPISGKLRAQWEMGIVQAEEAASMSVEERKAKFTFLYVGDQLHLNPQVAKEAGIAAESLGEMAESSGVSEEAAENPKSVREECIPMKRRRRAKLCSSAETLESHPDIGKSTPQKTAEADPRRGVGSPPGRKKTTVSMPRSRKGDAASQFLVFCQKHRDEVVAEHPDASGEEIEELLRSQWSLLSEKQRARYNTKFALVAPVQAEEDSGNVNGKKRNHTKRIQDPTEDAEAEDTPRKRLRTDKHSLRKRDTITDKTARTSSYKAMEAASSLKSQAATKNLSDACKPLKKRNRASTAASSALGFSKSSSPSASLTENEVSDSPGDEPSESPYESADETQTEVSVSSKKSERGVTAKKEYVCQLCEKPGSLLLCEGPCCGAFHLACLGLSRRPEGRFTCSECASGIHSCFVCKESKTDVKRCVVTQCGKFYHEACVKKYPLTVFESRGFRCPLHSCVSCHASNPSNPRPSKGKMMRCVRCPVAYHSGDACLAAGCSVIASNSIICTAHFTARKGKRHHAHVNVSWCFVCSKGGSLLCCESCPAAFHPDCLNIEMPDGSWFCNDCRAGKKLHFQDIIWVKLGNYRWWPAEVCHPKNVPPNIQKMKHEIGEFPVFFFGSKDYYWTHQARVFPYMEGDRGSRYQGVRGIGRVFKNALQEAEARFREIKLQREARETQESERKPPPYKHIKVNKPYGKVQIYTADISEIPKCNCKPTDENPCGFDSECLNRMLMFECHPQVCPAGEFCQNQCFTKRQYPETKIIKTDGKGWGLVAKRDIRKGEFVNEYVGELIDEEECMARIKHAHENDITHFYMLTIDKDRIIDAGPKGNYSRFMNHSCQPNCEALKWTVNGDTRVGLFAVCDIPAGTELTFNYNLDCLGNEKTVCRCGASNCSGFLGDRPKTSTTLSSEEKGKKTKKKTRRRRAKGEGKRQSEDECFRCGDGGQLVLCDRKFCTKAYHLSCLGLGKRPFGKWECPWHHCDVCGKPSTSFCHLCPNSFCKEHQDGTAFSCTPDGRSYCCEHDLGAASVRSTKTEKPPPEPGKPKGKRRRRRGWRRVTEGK

For orientation: IC50 means the point on the concentration scale where inhibition reaches its midpoint. By solubility is commonly meant the dissolved amount per volume that the medium holds. Regarding `Cc1c(C(=O)NC(CCC2CC2)C(=O)Nc2ccc(C#N)cc2)[nH]c2c1C(=O)CC(C)(C)C2` (stereo not drawn) [RK-701], in data set [1], the “occupancy of CHD4 on the BGLT3 gene locus” value is reported as “significantly decreased”. The “H3K9me2 levels in peripheral blood cells” value in data set [2] is given as “significant decrease”. In addition, the half-inhibitory concentration (IC50) against NSD2 (T1150A) and against EZH1 was over 100 µM each time. Further, in “Aqueous solubility” (PBS pH = 6.8, replicate values), the “Solubility in PBS (pH = 6.8)” value was 31.5 and 23.5 and 26.4. In addition, the “Solubility in PBS (pH = 7.4)” value in “Aqueous solubility” (PBS pH = 7.4, replicate values) was 10.4542 and 12.4313 and 11.5534 and 10.9261 and 15.3115 and 10.1928 and 7.42 and 8.729. The solubility at 1 h was 23.9 µM (≈ 10.7 µg/mL) in “Aqueous solubility” (pH 6.8, PBS pH = 6.8, replicate values, read-out: Solubility in PBS (pH = 6.8)); 26.3 ± 3.2 µM (≈ 11.7 µg/mL) in the data set “Aqueous solubility” (pH 6.8, pH6.8, read-out: Solubility in PBS); 10.9 ± 2.2 µM (≈ 4.87 µg/mL) in “Aqueous solubility” (pH 7.4, pH7.4, read-out: Solubility in PBS).
